Reference: patent US9657046B2, “Methods for the treatment and prevention of inflammatory diseases” (Children's Medical Center Corporation, priority 2010, dated 2017)

Tests used:
[1] = system: invariant Vα14 NKT cell hybridomas; assay: Invariant Vα14 NKT cell hybridomas with glycolipid-loaded immobilized CD1d, IL-2; type: cell-based, mouse; settings: immobilized recombinant CD1d loaded with glycolipid; three hybridomas (RT2, RT23, RT24)
Description: (§1) In FIG. 7A, NKT cell lines were cocultured with BM-derived DCs (BMDCs) and α-GalCer (100 ng/ml), PI57 (10 μg/ml), or vehicle for 48 hours, with or without pre-incubation with anti-CD1d (10 μg/ml). IFN-γ was measured by ELISA. In FIG. 7B, murine NKT cell lines were cocultured as in 7A with BMDCs from WT, Cd1d^−/−, Myd88^−/−, or Trif^−/− mice. Cells were treated with α-GalCer (100 ng/ml), PI57 (2.5, 5, or 10 μg/ml), PBS30 (1, 2.5, or 5 μg/ml), or vehicle for 48 hours. IFN-γ and IL-4 were measured by ELISA. […] In FIG. 7D, mouse NKT cell lines were stained with PE-labeled CD1d tetramers of PI57 or α-GalCer at 4° C. for 45 minutes or 37° C. for 25 minutes, and with anti-TCRβ-APC antibody. Top: Lymphocytes were gated in the FSC/SSC window. Bottom: Percentage of CD1d tetramer+ cells. […] In FIG. 7G, CD1d Fc-coated Maxisorp plates were loaded with lipid and cultured with 5×10^4 NKT cells. IFN-γ was analyzed by ELISA after 24 hours. Data represent 3 or 5 independent experiments.
NKT cell hybridomas were established from C57BL/6 thymic NKT cells by fusion with thymoma BW5147 as previously described (61).
Culture wells were coated with recombinant CD1/β2m dimer proteins (Becton Dickinson) according to the manufacture's protocols. […] Cytokines in the culture supernatants were determined by ELISA.

NKT cell clone BM2a.3 = assay: Human NKT cell clone BM2a.3 with CD1d-transfected cells, IFN-γ; type: cell-based
Description: as §1
CD1d transfected K562 cells and CD1d restricted human NKT cell clone BM2a.3 were previously described (62). The anti-CD1d antibody (clone 12.1.1.1) experiments have been performed as described (63).

With `CCCCCCCCCCCCCC(=O)OC[C@H]1O[C@H](O[C@H]2CC[C@@]3(C)C(=CC[C@H]4[C@@H]5CC[C@H]([C@H](C)CCCC(C)C)[C@@]5(C)CC[C@@H]43)C2)[C@H](O)[C@@H](O)[C@@H]1O` [PI57, Cholesteryl 6-O-tetradecanoyl-α-D-glucopyranoside] the “IL-2 production by Vα14 NKT cell hybridomas” value [1] was “produced IL-2” and the “response (IFN-γ production) of Vα24+ NKT cell clone BM2a.3” value (NKT cell clone BM2a.3) was “responded to this glycolipid”.
